Assay results published in US20230126447A1, “OCULAR DRUG DEPOT FOR COMPLEMENT-MEDIATED DISORDERS” (priority 2020, published 2023).

Assay: QWBA tissue distribution of [14C] Compound 1, pigmented Long-Evans rats (PO, IV)
Assay type: in vivo
Details: male LE rats, 20 mg/kg PO
Description: This study was conducted to determine the tissue distribution of drug-related radioactivity following a single oral (PO) (20 mg/kg) or intravenous (IV) (5 mg/kg) administration of [^14C]
Ten adult male pigmented Long-Evans (LE) rats (Group 1), 1 adult male LE rat (Group 2), and 3 albino Wistar Han (WH) rats (Group 3) received a single oral 20 mg/kg (Groups 1 and 3) or IV 5 mg/kg (Group 2) dose of [^14C] […] The formulation was prepared at a target dose of 5 mg (IV) or 20 mg (PO) […]
The carcasses were frozen in hexane dry-ice and stored at or below −20° C. prior to processing for QWBA. Each carcass was embedded, cut into sagittal sections, and mounted for QWBA. […] The lower limit of quantitation was 0.105 μg equiv/g.

CC(=O)c1nn(CC(=O)N2C[C@H](F)C[C@H]2C(=O)Nc2cccc(Br)n2)c2ccc(-c3cnc(C)nc3)cc12 [Compound 1, (2S,4R)-1-(2-(3-Acetyl-5-(2-methylpyrimidin-5-yl)-1H-indazol-1-yl)acetyl)-N-(6-bromopyridin-2-yl)-4-fluoropyrrolidine-2-carboxamide]
Concentration of radioactivity at Tmax, adrenal gland cortex: 33.5 μg equiv/g | Concentration of radioactivity at Tmax, liver: 52.0 μg equiv/g | Concentration of radioactivity at Tmax, small intestine: 77.9 μg equiv/g | Concentration of radioactivity at Tmax, stomach: 374 μg equiv/g | Concentration of radioactivity at Tmax, tissues with the lowest concentrations (brain, spinal cord, bone, testis, lens of the eye): < 1.00 μg equiv/g | Concentration of radioactivity at Tmax, urinary bladder: 54.2 μg equiv/g | Concentration of radioactivity at Tmax, white adipose: 21.1 μg equiv/g | t1/2, eye uvea: 24 days | t1/2, liver: 2.02 days | t1/2, pigmented skin: 19.7 days | Concentration of radioactivity at Tmax, bile (1 h): 232 μg equiv/g | Highest concentration of radioactivity in blood (1 h post-dose): 5.28 μg equiv/g | Concentration of radioactivity at Tmax, urine (4 h): 66.2 μg equiv/g | Concentration of radioactivity in blood (8 h post-dose): 0.184 μg equiv/g | Tissues with quantifiable concentrations at 672 h (672 h): Only eye (uvea) and pigmented skin
